Legend:
[1] = Measurement of blood glucose level in rat STZ-induced diabetes model; assay type: in vivo; settings: mean ± SE
Method: (§1) Compound 9 (50 mg/mL) was diluted with water for injection to obtain a 1 mg/mL administration specimen. For the specimens to be administered at 0.1 mg/mL and 0.01 mg/mL, the specimen to be administered at 1 mg/mL was diluted stepwise with water for injection. Each administration specimen was divided into PP disposable tubes every day and stored in a storehouse (freezer: MDF-MU339H-PJ, PHC Corporation) under the condition of freezing (−30° C. to −20° C., measured value: −26.4 to −24.5° C.). Preparation was performed on the day before the start of administration.
(§2) Water for injection was added to and dissolved in Pregabalin taken out from the capsule to obtain 2 mg/mL. It was prepared before use.
(§3) • Animal species: rat (SPF) • Strain: Crl: CD (SD) • Date of animal acquisition, gender, age in weeks, number of animals acquired, and weight range after 1 day of acquisition • First and second courses: Apr. 6, 2022, male, 7 weeks old, 35 animals, 217 to 237 g • Third and fourth courses: Apr. 13, 2022, male, 7 weeks old, 35 animals, 216 to 235 g • Source: […].
(§4) • Dose volume: calculated at 2 mL/kg based on the body weight on the day of administration. • Number of times of administration: once • Day of administration: 7 days before the day of starting administration of the test substance.
(§5) • Dose volume: calculated at 1 mL/kg based on the body weight on the day of administration. • Number of times of administration: 9 times • Interval of administration: once every 3 days (evaluation was performed on the day after administration) • Day of starting administration: day 8 of STZ administration (day of STZ administration is counted as day 1).
(§6) • Dose volume: calculated at 10 mL/kg based on the body weight on the day of administration. • Number of times of administration: Administration was performed once on the day of evaluation of neuropathic pain, twice in total, and on the other days of administration, a vehicle for a control substance (water for injection) was orally administered.
On days 7 and 35 of STZ administration, about 50 μL of blood was collected from the tail vein using a winged injection needle (Terumo Corporation) equipped with a heparinized capillary (DRUMMOND […]).
The blood obtained above was centrifuged [centrifugal conditions: 4° C., 3,000 rpm (×2,150 g), 15 min] with a centrifuge (CF 9RX, Hitachi Koki Co., Ltd.) to obtain plasma. Blood glucose levels of a part of plasma obtained by blood collection on day 7 and day 35 after STZ administration were measured by hexokinase G-6 PDH method (L-type Wako Glu2, FUJIFILM Wako Pure Chemical Corporation) using a biochemical automatic analyzer (AU480, Beckman Coulter, Inc.). […] The plasma after the measurement was discarded.
The mean and standard error of each group were calculated for the 50% withdrawal threshold, body weight, and blood glucose level.
The body weight was an integer.
No significant difference test of body weight and blood glucose levels was performed.

[2] = Observation of general condition in rat STZ-induced diabetes model; assay type: in vivo; settings: number of animals, 10 per group
Method: as §1, §2, §3, §4, §5, §6
• Observation of general condition • Observation was performed once a day.

[3] = 0.01 mg/kg iv, day 35 of STZ administration
[4] = 0.1 mg/kg iv, day 35 of STZ administration
[5] = 1 mg/kg iv, day 35 of STZ administration

## CC[C@@]1(C)Oc2cc(ccc2O)C[C@H](NC)C(=O)N[C@@H](C(C)C)C(=O)N[C@@H]1C(=O)N[C@@H](CC(=O)O)C(=O)O [Compound 9]
[1]; 0.01 mg/kg iv group, day 7 of STZ administration (before start of dosing)
  Blood glucose level, Glu: 581.8 ± 18.5 mg/dL
[1]; [3]
  Blood glucose level, Glu: 623.6 ± 22.0 mg/dL
[1]; 0.1 mg/kg iv group, day 7 of STZ administration (before start of dosing)
  Blood glucose level, Glu: 576.3 ± 15.5 mg/dL
[1]; [4]
  Blood glucose level, Glu: 608.4 ± 32.7 mg/dL
[1]; 1 mg/kg iv group, day 7 of STZ administration (before start of dosing)
  Blood glucose level, Glu: 562.7 ± 14.7 mg/dL
[1]; [5]
  Blood glucose level, Glu: 605.6 ± 18.9 mg/dL
[2]; 0.01 mg/kg iv, day 1 of STZ administration
  general condition: 10
[2]; 0.01 mg/kg iv, day 2 of STZ administration
  general condition: 10
[2]; 0.01 mg/kg iv, day 3 of STZ administration
  general condition: 10
[2]; 0.01 mg/kg iv, day 4 of STZ administration
  general condition: 10
[2]; 0.01 mg/kg iv, day 5 of STZ administration
  general condition: 10
[2]; 0.01 mg/kg iv, day 6 of STZ administration
  general condition: 10
[2]; 0.01 mg/kg iv, day 7 of STZ administration
  general condition: 10
[2]; 0.01 mg/kg iv, day 8 of STZ administration
  general condition: 10
[2]; 0.01 mg/kg iv, day 9 of STZ administration
  general condition: 10
[2]; 0.01 mg/kg iv, day 10 of STZ administration
  general condition: 10
[2]; 0.01 mg/kg iv, day 11 of STZ administration
  general condition: 10
[2]; 0.01 mg/kg iv, day 12 of STZ administration
  general condition: 10
[2]; 0.01 mg/kg iv, day 13 of STZ administration
  general condition: 10
[2]; 0.01 mg/kg iv, day 14 of STZ administration
  general condition: 10
[2]; 0.01 mg/kg iv, day 15 of STZ administration
  general condition: 10
[2]; 0.01 mg/kg iv, day 16 of STZ administration
  general condition: 10
[2]; 0.01 mg/kg iv, day 17 of STZ administration
  general condition: 10
[2]; 0.01 mg/kg iv, day 18 of STZ administration
  general condition: 10
[2]; 0.01 mg/kg iv, day 19 of STZ administration
  general condition: 10
[2]; 0.01 mg/kg iv, day 20 of STZ administration
  general condition: 10
[2]; 0.01 mg/kg iv, day 21 of STZ administration
  general condition: 10
[2]; 0.01 mg/kg iv, day 22 of STZ administration
  general condition: 10
[2]; 0.01 mg/kg iv, day 23 of STZ administration
  general condition: 10
[2]; 0.01 mg/kg iv, day 24 of STZ administration
  general condition: 10
[2]; 0.01 mg/kg iv, day 25 of STZ administration
  general condition: 10
[2]; 0.01 mg/kg iv, day 26 of STZ administration
  general condition: 10
[2]; 0.01 mg/kg iv, day 27 of STZ administration
  general condition: 10
[2]; 0.01 mg/kg iv, day 28 of STZ administration
  general condition: 10
[2]; 0.01 mg/kg iv, day 29 of STZ administration
  general condition: 10
[2]; 0.01 mg/kg iv, day 30 of STZ administration
  general condition: 10
[2]; 0.01 mg/kg iv, day 31 of STZ administration
  general condition: 10
[2]; 0.01 mg/kg iv, day 32 of STZ administration
  general condition: 10
[2]; 0.01 mg/kg iv, day 33 of STZ administration
  general condition: 10
[2]; 0.01 mg/kg iv, day 34 of STZ administration
  general condition: 10
[2]; [3]
  general condition: 10
[2]; 0.1 mg/kg iv, day 1 of STZ administration
  general condition: 10
[2]; 0.1 mg/kg iv, day 2 of STZ administration
  general condition: 10
[2]; 0.1 mg/kg iv, day 3 of STZ administration
  general condition: 10
[2]; 0.1 mg/kg iv, day 4 of STZ administration
  general condition: 10
[2]; 0.1 mg/kg iv, day 5 of STZ administration
  general condition: 10
[2]; 0.1 mg/kg iv, day 6 of STZ administration
  general condition: 10
[2]; 0.1 mg/kg iv, day 7 of STZ administration
  general condition: 10
[2]; 0.1 mg/kg iv, day 8 of STZ administration
  general condition: 10
[2]; 0.1 mg/kg iv, day 9 of STZ administration
  general condition: 10
[2]; 0.1 mg/kg iv, day 10 of STZ administration
  general condition: 10
[2]; 0.1 mg/kg iv, day 11 of STZ administration
  general condition: 10
[2]; 0.1 mg/kg iv, day 12 of STZ administration
  general condition: 10
[2]; 0.1 mg/kg iv, day 13 of STZ administration
  general condition: 10
[2]; 0.1 mg/kg iv, day 14 of STZ administration
  general condition: 10
[2]; 0.1 mg/kg iv, day 15 of STZ administration
  general condition: 10
[2]; 0.1 mg/kg iv, day 16 of STZ administration
  general condition: 10
[2]; 0.1 mg/kg iv, day 17 of STZ administration
  general condition: 10
[2]; 0.1 mg/kg iv, day 18 of STZ administration
  general condition: 10
[2]; 0.1 mg/kg iv, day 19 of STZ administration
  general condition: 10
[2]; 0.1 mg/kg iv, day 20 of STZ administration
  general condition: 10
[2]; 0.1 mg/kg iv, day 21 of STZ administration
  general condition: 10
[2]; 0.1 mg/kg iv, day 22 of STZ administration
  general condition: 10
[2]; 0.1 mg/kg iv, day 23 of STZ administration
  general condition: 10
[2]; 0.1 mg/kg iv, day 24 of STZ administration
  general condition: 10
[2]; 0.1 mg/kg iv, day 25 of STZ administration
  general condition: 10
[2]; 0.1 mg/kg iv, day 26 of STZ administration
  general condition: 10
[2]; 0.1 mg/kg iv, day 27 of STZ administration
  general condition: 10
[2]; 0.1 mg/kg iv, day 28 of STZ administration
  general condition: 10
[2]; 0.1 mg/kg iv, day 29 of STZ administration
  general condition: 10
[2]; 0.1 mg/kg iv, day 30 of STZ administration
  general condition: 10
[2]; 0.1 mg/kg iv, day 31 of STZ administration
  general condition: 10
[2]; 0.1 mg/kg iv, day 32 of STZ administration
  general condition: 10
[2]; 0.1 mg/kg iv, day 33 of STZ administration
  general condition: 10
[2]; 0.1 mg/kg iv, day 34 of STZ administration
  general condition: 10
[2]; [4]
  general condition: 10
[2]; 1 mg/kg iv, day 1 of STZ administration
  general condition: 10
[2]; 1 mg/kg iv, day 2 of STZ administration
  general condition: 10
[2]; 1 mg/kg iv, day 3 of STZ administration
  general condition: 10
[2]; 1 mg/kg iv, day 4 of STZ administration
  general condition: 10
[2]; 1 mg/kg iv, day 5 of STZ administration
  general condition: 10
[2]; 1 mg/kg iv, day 6 of STZ administration
  general condition: 10
[2]; 1 mg/kg iv, day 7 of STZ administration
  general condition: 10
[2]; 1 mg/kg iv, day 8 of STZ administration
  general condition: 10
[2]; 1 mg/kg iv, day 9 of STZ administration
  general condition: 10
[2]; 1 mg/kg iv, day 10 of STZ administration
  general condition: 10
[2]; 1 mg/kg iv, day 11 of STZ administration
  general condition: 10
[2]; 1 mg/kg iv, day 12 of STZ administration
  general condition: 10
[2]; 1 mg/kg iv, day 13 of STZ administration
  general condition: 10
[2]; 1 mg/kg iv, day 14 of STZ administration
  general condition: 10
[2]; 1 mg/kg iv, day 15 of STZ administration
  general condition: 10
[2]; 1 mg/kg iv, day 16 of STZ administration
  general condition: 10
[2]; 1 mg/kg iv, day 17 of STZ administration
  general condition: 10
[2]; 1 mg/kg iv, day 18 of STZ administration
  general condition: 10
[2]; 1 mg/kg iv, day 19 of STZ administration
  general condition: 10
[2]; 1 mg/kg iv, day 20 of STZ administration
  general condition: 10
[2]; 1 mg/kg iv, day 21 of STZ administration
  general condition: 10
[2]; 1 mg/kg iv, day 22 of STZ administration
  general condition: 10
[2]; 1 mg/kg iv, day 28 of STZ administration
  general condition: 10
[2]; 1 mg/kg iv, day 29 of STZ administration
  general condition: 10
[2]; 1 mg/kg iv, day 30 of STZ administration
  general condition: 10
[2]; 1 mg/kg iv, day 31 of STZ administration
  general condition: 10
[2]; 1 mg/kg iv, day 32 of STZ administration
  general condition: 10
[2]; 1 mg/kg iv, day 33 of STZ administration
  general condition: 10
[2]; 1 mg/kg iv, day 34 of STZ administration
  general condition: 10
[2]; [5]
  general condition: 10

From patent US20260158102A1, “CYCLIC PEPTIDE DERIVATIVE COMPOSITION FOR TREATING OR PREVENTING NEUROPATHIC PAIN AND/OR INFLAMMATORY PAIN” (DKS Co. Ltd., priority 2022, published 2026)
